This passage reports IC50 and inhibition results from ChEMBL document CHEMBL3714742, “Pyrimido (4,5-b) indole derivatives” (2003).

The target of assay [1] is T1, Dual specificity mitogen-activated protein kinase kinase 7 (Homo sapiens, UniProt O14733).
T1 sequence (O14733 whole entry): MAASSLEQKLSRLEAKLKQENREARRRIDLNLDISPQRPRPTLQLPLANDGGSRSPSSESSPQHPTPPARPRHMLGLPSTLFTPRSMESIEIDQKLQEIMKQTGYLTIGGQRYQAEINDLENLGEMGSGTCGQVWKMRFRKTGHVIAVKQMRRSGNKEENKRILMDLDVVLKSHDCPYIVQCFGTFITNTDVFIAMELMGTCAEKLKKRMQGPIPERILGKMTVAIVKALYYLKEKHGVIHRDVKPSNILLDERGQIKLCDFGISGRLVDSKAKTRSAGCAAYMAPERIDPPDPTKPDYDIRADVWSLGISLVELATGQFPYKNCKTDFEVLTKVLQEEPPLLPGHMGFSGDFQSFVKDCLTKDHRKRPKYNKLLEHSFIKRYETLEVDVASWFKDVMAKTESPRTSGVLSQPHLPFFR
The assay can be described thus: Inhibition of GST-tagged human MKK7 expressed in Escherichia coli (BL21(DE3) pLysS) co-expressing human MEKK catalytic domain using biotinylated and GST-tagged rat GST-KN-SAPKalpha substrate incubated for 1 hr by time-resolved fluorescence based assay.

Assay [2] has as its system Mus musculus. The experiment in a line: Inhibition of anti-CD3 antibody-induced IL2 production in Balb/c mouse dosed intravenously 5 mins before anti-CD3 antibody injection and measured 2 hrs post-challenge by ELISA. It is filed as functional, organism-based. A general note: An ELISA detects its analyte on a solid surface through an enzyme-linked reagent.
Assay [3] has as its system Mus musculus. The experiment in a line: Inhibition of anti-CD3 antibody-induced IL4 production in Balb/c mouse dosed intravenously 5 mins before anti-CD3 antibody injection and measured 2 hrs post-challenge by ELISA. It is filed as functional, organism-based.
For assay [4], the system named is Mus musculus. The assay can be described thus: Inhibition of anti-CD3 antibody-induced IFNgamma production in Balb/c mouse dosed intravenously 5 mins before anti-CD3 antibody injection and measured 2 hrs post-challenge by ELISA. It is filed as functional, organism-based.
For assay [5], the target named is T2, Dual specificity mitogen-activated protein kinase kinase 4 (Homo sapiens, UniProt P45985).
T2 sequence (P45985 whole entry): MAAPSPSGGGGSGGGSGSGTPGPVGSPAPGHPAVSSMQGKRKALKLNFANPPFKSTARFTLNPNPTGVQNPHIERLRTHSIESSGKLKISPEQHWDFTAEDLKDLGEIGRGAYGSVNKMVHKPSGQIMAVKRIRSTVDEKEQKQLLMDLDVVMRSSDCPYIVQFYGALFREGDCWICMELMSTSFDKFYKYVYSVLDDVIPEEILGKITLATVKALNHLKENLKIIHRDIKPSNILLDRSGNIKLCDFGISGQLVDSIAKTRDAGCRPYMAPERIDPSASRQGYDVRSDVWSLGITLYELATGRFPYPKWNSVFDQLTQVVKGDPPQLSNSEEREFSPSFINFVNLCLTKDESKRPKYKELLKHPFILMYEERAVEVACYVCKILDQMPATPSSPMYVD
The assay can be described thus: Inhibition of GST-tagged human MKK4 expressed in Escherichia coli (BL21(DE3) pLysS) co-expressing human MEKK catalytic domain using biotinylated and GST-tagged rat GST-KN-SAPKalpha substrate incubated for 2 hrs by time-resolved fluorescence based assay.

Active and inactive are the calls of the source. No rule for the calls is given here. Bounds are passed on as bounds.

With `Cc1nc(N2CCCCC2)c2c(n1)[nH]c1ccc(C(=O)O)cc12`, the IC50 in assay [1] and in assay [5] was under 1 µM throughout. For the same compound, the inhibition entry in the assay with Mus musculus [2], in the assay with Mus musculus [3] and with Mus musculus [4] was “Active” throughout.

For `Nc1nc(N2CCCCCC2)c2c(n1)[nH]c1ccc(O)cc12`, the IC50 in assay [1] and in assay [5] was under 1 µM each time. Also, the inhibition result in the assay with Mus musculus [2], with Mus musculus [3] and in the assay with Mus musculus [4] was “Active” throughout.

Take `Cc1nc(NC(C)CO)c2c(n1)[nH]c1ccc(O)cc12` (centres undefined): the IC50 in assay [1] and in assay [5] was under 1 µM throughout. In addition, the inhibition result in the assay on Mus musculus [2], in the assay with Mus musculus [3] and in the assay with Mus musculus [4] was “Active” in each case.

In the case of `Cc1nc(N2CCCCC2)c2c(n1)[nH]c1ccc(C(N)=O)cc12`, the IC50 in assay [1] and in assay [5] was under 1 µM each time. Also, the inhibition entry in the assay on Mus musculus [2], with Mus musculus [3] and in the assay on Mus musculus [4] was “Active” throughout.

For the compound `NC(=O)c1ccc2[nH]c3ncnc(N4CCC(CO)CC4)c3c2c1`, the IC50 in assay [1] is under 1 µM. The inhibition result with Mus musculus [2], in the assay on Mus musculus [3] and with Mus musculus [4] was “Active” throughout.

The compound `Nc1nc(N2CCC(C(=O)O)CC2)c2c(n1)[nH]c1ccc(O)cc12` returned an IC50 in assay [1] of 1 µM. The inhibition entry with Mus musculus [2], in the assay with Mus musculus [3] and in the assay with Mus musculus [4] was “Active” each time.

In assay [1], `OC[C@@H]1CCCN1c1ncnc2[nH]c3ccc(O)cc3c12` yielded an IC50 of under 1 µM. In addition, the inhibition entry in the assay with Mus musculus [2], with Mus musculus [3] and with Mus musculus [4] was “Active” throughout.

With `NC(=O)c1ccc2[nH]c3ncnc(N4CCCCCC4)c3c2c1`, the IC50 in assay [1] is under 1 µM. Further, the inhibition result in the assay on Mus musculus [2], with Mus musculus [3] and in the assay with Mus musculus [4] was “Active” each time.

`CC1CCCN(c2ncnc3[nH]c4ccc(O)cc4c23)C1` (centres undefined) came in with an IC50 in assay [1] of under 1 µM. The inhibition entry in the assay with Mus musculus [2], with Mus musculus [3] and with Mus musculus [4] was “Active” throughout.

In assay [1], `CN(CCO)c1ncnc2[nH]c3ccc(C(N)=O)cc3c12` showed an IC50 of under 1 µM. Also, the inhibition entry in the assay on Mus musculus [2], in the assay on Mus musculus [3] and in the assay on Mus musculus [4] was “Active” in each case.

For `OCCC1CCN(c2ncnc3[nH]c4ccc(O)cc4c23)CC1`, the IC50 in assay [1] is under 1 µM. Also, the inhibition result in the assay with Mus musculus [2], in the assay with Mus musculus [3] and with Mus musculus [4] was “Active” throughout.

As for `Nc1nc(N2CCOCC2)c2c(n1)[nH]c1ccc(O)cc12`, the IC50 in assay [1] was under 1 µM. Moreover, the inhibition result with Mus musculus [2], in the assay on Mus musculus [3] and in the assay on Mus musculus [4] was “Active” throughout.

`Oc1ccc2[nH]c3ncnc(N4CCC(O)CC4)c3c2c1`: the IC50 in assay [1] was under 1 µM. The inhibition entry in the assay on Mus musculus [2], with Mus musculus [3] and with Mus musculus [4] was “Active” each time.

On to `OCCNc1ncnc2[nH]c3ccc(O)cc3c12`, for which the IC50 in assay [1] is under 1 µM. Further, the inhibition entry in the assay with Mus musculus [2], in the assay with Mus musculus [3] and with Mus musculus [4] was “Active” each time.

Turning to `OCCN(CCO)c1ncnc2[nH]c3ccc(O)cc3c12`, the IC50 in assay [1] is under 1 µM. For the same compound, the inhibition entry in the assay with Mus musculus [2], in the assay with Mus musculus [3] and in the assay on Mus musculus [4] was “Active” in each case.

As for `NC(=O)c1ccc2[nH]c3ncnc(N4CCCC(O)C4)c3c2c1` (centres undefined), in assay [1], the IC50 was under 1 µM. The inhibition entry with Mus musculus [2], with Mus musculus [3] and in the assay with Mus musculus [4] was “Active” in each case.

As to `CC1CCCCN1c1nc(N)nc2[nH]c3ccc(O)cc3c12` (centres undefined), the IC50 in assay [1] is under 1 µM. In addition, the inhibition result in the assay with Mus musculus [2], with Mus musculus [3] and in the assay on Mus musculus [4] was “Active” throughout.

`CCN(CC)c1nc(C)nc2[nH]c3ccc(O)cc3c12` came in with an IC50 in assay [1] of 1 µM. Also, the inhibition result in the assay with Mus musculus [2], in the assay on Mus musculus [3] and in the assay with Mus musculus [4] was “Active” in each case.

In the case of `C[C@H](CO)Nc1ncnc2[nH]c3ccc(O)cc3c12`, the IC50 in assay [1] is under 1 µM. In addition, the inhibition result in the assay on Mus musculus [2], in the assay on Mus musculus [3] and with Mus musculus [4] was “Active” throughout.

In turn, `CNC1CCN(c2ncnc3[nH]c4ccc(C(N)=O)cc4c23)C1` (centres undefined) gave an IC50 in assay [1] of under 1 µM. Also, the inhibition entry in the assay on Mus musculus [2], with Mus musculus [3] and in the assay on Mus musculus [4] was “Active” in each case.

Compound `Nc1nc(N2CCCC(O)C2)c2c(n1)[nH]c1ccc(O)cc12` (centres undefined) had an IC50 in assay [1] of under 1 µM. Moreover, the inhibition entry in the assay with Mus musculus [2], in the assay with Mus musculus [3] and in the assay on Mus musculus [4] was “Active” each time.

In assay [1], `NC(=O)c1ccc2[nH]c3ncnc(N4CCCCC4)c3c2c1` yielded an IC50 of under 1 µM. Besides, the inhibition entry with Mus musculus [2], in the assay on Mus musculus [3] and in the assay on Mus musculus [4] was “Active” each time.

For the compound `NC1CCCN(c2ncnc3[nH]c4ccc(O)cc4c23)C1` (centres undefined), in assay [1], the IC50 was under 1 µM. The inhibition entry with Mus musculus [2], in the assay with Mus musculus [3] and with Mus musculus [4] was “Active” throughout.

`Cc1nc(NC(C)CO)c2c(n1)[nH]c1ccc(OCc3ccccc3)cc12` (centres undefined) registered an IC50 in assay [1] of under 1 µM. Moreover, the inhibition result with Mus musculus [2], with Mus musculus [3] and in the assay on Mus musculus [4] was “Active” throughout.

As to `Nc1nc(N2CCC(Br)CC2)c2c(n1)[nH]c1ccc(O)cc12`, the IC50 in assay [1] is under 1 µM. The inhibition entry with Mus musculus [2], in the assay with Mus musculus [3] and in the assay on Mus musculus [4] was “Active” in each case.

Regarding `CN(CCO)c1nc(N)nc2[nH]c3ccc(O)cc3c12`, in assay [1], the IC50 is under 1 µM. Besides, the inhibition entry in the assay on Mus musculus [2], in the assay with Mus musculus [3] and in the assay on Mus musculus [4] was “Active” each time.

`Cc1nc(N2CCCC2)c2c(n1)[nH]c1ccc(O)cc12` showed an IC50 in assay [1] of 1 µM. In addition, the inhibition entry in the assay on Mus musculus [2], in the assay with Mus musculus [3] and in the assay with Mus musculus [4] was “Active” each time.

In turn, `Cc1nc(N2CCCC(C)C2)c2c(n1)[nH]c1ccc(O)cc12` (centres undefined) came in with an IC50 in assay [1] of 1 µM. Further, the inhibition entry with Mus musculus [2], in the assay with Mus musculus [3] and with Mus musculus [4] was “Active” in each case.

Take `NC(=O)C1CCN(c2ncnc3[nH]c4ccc(O)cc4c23)CC1`: in assay [1], the IC50 was under 1 µM. For the same compound, the inhibition entry with Mus musculus [2], in the assay with Mus musculus [3] and in the assay with Mus musculus [4] was “Active” in each case.

With `Cc1nc(N2CCCCC2CO)c2c(n1)[nH]c1ccc(O)cc12` (centres undefined), the IC50 in assay [1] was 1 µM. Besides, the inhibition entry with Mus musculus [2], with Mus musculus [3] and in the assay on Mus musculus [4] was “Active” in each case.

Regarding `NCc1ccc2[nH]c3nc(N)nc(N4CCCCC4)c3c2c1`, the IC50 in assay [1] was 1 µM. Also, the inhibition result in the assay with Mus musculus [2], with Mus musculus [3] and with Mus musculus [4] was “Active” throughout.

Regarding `Cc1nc(N2CCC(CO)CC2)c2c(n1)[nH]c1ccc(O)cc12`, in assay [1], 1 µM corresponded to half-maximal inhibition (IC50). Also, the inhibition result in the assay with Mus musculus [2], in the assay on Mus musculus [3] and in the assay on Mus musculus [4] was “Active” in each case.

`O=CN1CCN(c2ncnc3[nH]c4ccc(O)cc4c23)CC1` gave an IC50 in assay [1] of under 1 µM. Also, the inhibition result in the assay on Mus musculus [2], in the assay on Mus musculus [3] and with Mus musculus [4] was “Active” in each case.

Regarding `CC1CCN(c2nc(N)nc3[nH]c4ccc(O)cc4c23)CC1`, in assay [1], the IC50 is under 1 µM. In addition, the inhibition result in the assay with Mus musculus [2], in the assay on Mus musculus [3] and in the assay on Mus musculus [4] was “Active” in each case.

The compound `COCCNc1ncnc2[nH]c3ccc(O)cc3c12` registered an IC50 in assay [1] of under 1 µM. Besides, the inhibition entry in the assay on Mus musculus [2], in the assay with Mus musculus [3] and in the assay with Mus musculus [4] was “Active” throughout.

For orientation: IC50 means the midpoint of a concentration-inhibition curve.
